{"source": "patent US20250262218A1", "about": "“COMPOSITIONS, FORMULATIONS AND METHODS FOR STIMULATING RESPIRATION” (Auros Pharma LLC, priority 2024, published 2025)", "origin": "cited, not measured here", "note": "Like-named read-outs stand apart in the source and are kept apart here.", "data": [{"compound": "CCN1CC(CCN2CCOCC2)C(c2ccccc2)(c2ccccc2)C1=O", "note": "(stereo not shown) [doxapram, 1-ethyl-4-(2-morpholinoethyl)-3,3-diphenyl-2-pyrrolidinone]", "values": [{"measurement": "solubility", "setting": "in alcohol", "value": "sparingly soluble"}, {"measurement": "solubility", "setting": "in ether", "value": "practically insoluble"}, {"measurement": "solubility", "setting": "in water", "value": "soluble"}, {"measurement": "stability", "setting": "light and air", "value": "stable in light and air"}]}]}
